Read-outs that look alike come from different tables or passages of the source.
Tested on: PABPC1 PABC
Assay type: binding, human
Details: DMS-BM library, bait PABPC1 PABC, row aa = residue at this position; for DMS-derived PSSM value, position E10: E = wild type
[1] = prey ATXN2, TLNPNAKEFNPRSF(averaged) over the two overlapping peptides, S = wild type
[2] = prey ATXN2, TLNPNAKEFNPRSF(averaged) over the two overlapping peptides, T = wild type
[3] = prey ATXN2, peptide KSTLNPNAKEFNPRSF, N = wild type
[4] = prey ATXN2, peptide TLNPNAKEFNPRSFSQ, P = wild type
[5] = prey ATXN2, peptide TLNPNAKEFNPRSFSQ, N = wild type
[6] = prey ATXN2, peptide TLNPNAKEFNPRSFSQ, F = wild type
[7] = prey ATXN2, peptide KSTLNPNAKEFNPRSF, P = wild type
[8] = prey ATXN2, peptide KSTLNPNAKEFNPRSF
[9] = prey ATXN2, TLNPNAKEFNPRSF(averaged) over the two overlapping peptides, N = wild type
[10] = prey ATXN2, peptide KSTLNPNAKEFNPRSF, A = wild type
[11] = prey ATXN2, TLNPNAKEFNPRSF(averaged) over the two overlapping peptides, R = wild type
[12] = prey ATXN2, peptide KSTLNPNAKEFNPRSF, K = wild type
[13] = prey ATXN2, TLNPNAKEFNPRSF(averaged) over the two overlapping peptides, P = wild type
[14] = prey ATXN2, TLNPNAKEFNPRSF(averaged) over the two overlapping peptides, L = wild type
[15] = prey ATXN2, peptide TLNPNAKEFNPRSFSQ, S = wild type
[16] = prey ATXN2, TLNPNAKEFNPRSF(averaged) over the two overlapping peptides, K = wild type
[17] = prey ATXN2, peptide TLNPNAKEFNPRSFSQ, T = wild type
[18] = prey ATXN2, TLNPNAKEFNPRSF(averaged) over the two overlapping peptides, F = wild type

TLNPNAKEFNPRSF(averaged) S13N (TLNPNAKEFNPRNF)
DMS-derived PSSM value (averaged), position S13 [1]: 0.08567

TLNPNAKEFNPRSFSQ A6K (TLNPNKKEFNPRSFSQ)
DMS-derived PSSM value, position A6 (prey ATXN2, peptide TLNPNAKEFNPRSFSQ, A = wild type): 0

TLNPNAKEFNPRSF(averaged) T1Y (YLNPNAKEFNPRSF)
DMS-derived PSSM value (averaged), position T1 [2]: 0.168

KSTLNPNAKEFNPRSF N5H (KSTLHPNAKEFNPRSF)
DMS-derived PSSM value, position N5 [3]: 0

TLNPNAKEFNPRSFSQ P4W (TLNWNAKEFNPRSFSQ)
DMS-derived PSSM value, position P4 [4]: 0

TLNPNAKEFNPRSFSQ N3M (TLMPNAKEFNPRSFSQ)
DMS-derived PSSM value, position N3 [5]: 0

TLNPNAKEFNPRSFSQ F9M (TLNPNAKEMNPRSFSQ)
DMS-derived PSSM value, position F9 [6]: 0

TLNPNAKEFNPRSFSQ P4R (TLNRNAKEFNPRSFSQ)
DMS-derived PSSM value, position P4 [4]: 0

KSTLNPNAKEFNPRSF P6A (KSTLNANAKEFNPRSF)
DMS-derived PSSM value, position P6 [7]: 0

KSTLNPNAKEFNPRSF E10S (KSTLNPNAKSFNPRSF)
DMS-derived PSSM value, position E10 [8]: 0

TLNPNAKEFNPRSF(averaged) N3Q (TLQPNAKEFNPRSF)
DMS-derived PSSM value (averaged), position N3 [9]: 0.0275

KSTLNPNAKEFNPRSF A8L (KSTLNPNLKEFNPRSF)
DMS-derived PSSM value, position A8 [10]: 0

TLNPNAKEFNPRSF(averaged) R12H (TLNPNAKEFNPHSF)
DMS-derived PSSM value (averaged), position R12 [11]: 0.1075

TLNPNAKEFNPRSFSQ P11D (TLNPNAKEFNDRSFSQ)
DMS-derived PSSM value, position P11 [4]: 0.005508

KSTLNPNAKEFNPRSF K9F (KSTLNPNAFEFNPRSF)
DMS-derived PSSM value, position K9 [12]: 0.02411

TLNPNAKEFNPRSF(averaged) N5R (TLNPRAKEFNPRSF)
DMS-derived PSSM value (averaged), position N5 [9]: 0.004628

KSTLNPNAKEFNPRSF E10K (KSTLNPNAKKFNPRSF)
DMS-derived PSSM value, position E10 [8]: 0.06317

TLNPNAKEFNPRSF(averaged) A6W (TLNPNWKEFNPRSF)
DMS-derived PSSM value (averaged), position A6 (prey ATXN2, TLNPNAKEFNPRSF(averaged) over the two overlapping peptides, A = wild type): 0

KSTLNPNAKEFNPRSF E10R (KSTLNPNAKRFNPRSF)
DMS-derived PSSM value, position E10 [8]: 0

KSTLNPNAKEFNPRSF P6L (KSTLNLNAKEFNPRSF)
DMS-derived PSSM value, position P6 [7]: 0.1435

TLNPNAKEFNPRSF(averaged) P11E (TLNPNAKEFNERSF)
DMS-derived PSSM value (averaged), position P11 [13]: 0.00334

KSTLNPNAKEFNPRSF P13Y (KSTLNPNAKEFNYRSF)
DMS-derived PSSM value, position P13 [7]: 0.004042

TLNPNAKEFNPRSF(averaged) L2G (TGNPNAKEFNPRSF)
DMS-derived PSSM value (averaged), position L2 [14]: 0

TLNPNAKEFNPRSFSQ S15L (TLNPNAKEFNPRSFLQ)
DMS-derived PSSM value, position S15 [15]: 0.001672

TLNPNAKEFNPRSFSQ K7F (TLNPNAFEFNPRSFSQ)
DMS-derived PSSM value, position K7 (prey ATXN2, peptide TLNPNAKEFNPRSFSQ, K = wild type): 0.058

TLNPNAKEFNPRSFSQ N10G (TLNPNAKEFGPRSFSQ)
DMS-derived PSSM value, position N10 [5]: 0.01946

KSTLNPNAKEFNPRSF K9G (KSTLNPNAGEFNPRSF)
DMS-derived PSSM value, position K9 [12]: 0.006369

TLNPNAKEFNPRSFSQ F9K (TLNPNAKEKNPRSFSQ)
DMS-derived PSSM value, position F9 [6]: 0

TLNPNAKEFNPRSF(averaged) T1K (KLNPNAKEFNPRSF)
DMS-derived PSSM value (averaged), position T1 [2]: 0.01914

KSTLNPNAKEFNPRSF N12H (KSTLNPNAKEFHPRSF)
DMS-derived PSSM value, position N12 [3]: 0.04066

KSTLNPNAKEFNPRSF E10Y (KSTLNPNAKYFNPRSF)
DMS-derived PSSM value, position E10 [8]: 0

KSTLNPNAKEFNPRSF P6D (KSTLNDNAKEFNPRSF)
DMS-derived PSSM value, position P6 [7]: 0

KSTLNPNAKEFNPRSF P13A (KSTLNPNAKEFNARSF)
DMS-derived PSSM value, position P13 [7]: 0.005231

TLNPNAKEFNPRSFSQ L2N (TNNPNAKEFNPRSFSQ)
DMS-derived PSSM value, position L2 (prey ATXN2, peptide TLNPNAKEFNPRSFSQ, L = wild type): 0

KSTLNPNAKEFNPRSF F11Y (KSTLNPNAKEYNPRSF)
DMS-derived PSSM value, position F11 (prey ATXN2, peptide KSTLNPNAKEFNPRSF, F = wild type): 0.3016

KSTLNPNAKEFNPRSF A8G (KSTLNPNGKEFNPRSF)
DMS-derived PSSM value, position A8 [10]: 0

KSTLNPNAKEFNPRSF N5S (KSTLSPNAKEFNPRSF)
DMS-derived PSSM value, position N5 [3]: 0.0715

TLNPNAKEFNPRSFSQ S15R (TLNPNAKEFNPRSFRQ)
DMS-derived PSSM value, position S15 [15]: 0.01068

TLNPNAKEFNPRSF(averaged) P4K (TLNKNAKEFNPRSF)
DMS-derived PSSM value (averaged), position P4 [13]: 0

KSTLNPNAKEFNPRSF K9Q (KSTLNPNAQEFNPRSF)
DMS-derived PSSM value, position K9 [12]: 0.02634

TLNPNAKEFNPRSFSQ S15K (TLNPNAKEFNPRSFKQ)
DMS-derived PSSM value, position S15 [15]: 0.007327

KSTLNPNAKEFNPRSF S2T (KTTLNPNAKEFNPRSF)
DMS-derived PSSM value, position S2 (prey ATXN2, peptide KSTLNPNAKEFNPRSF, S = wild type): 0.02133

TLNPNAKEFNPRSFSQ P11E (TLNPNAKEFNERSFSQ)
DMS-derived PSSM value, position P11 [4]: 0.0006031

TLNPNAKEFNPRSF(averaged) R12T (TLNPNAKEFNPTSF)
DMS-derived PSSM value (averaged), position R12 [11]: 0.1269

TLNPNAKEFNPRSF(averaged) N3S (TLSPNAKEFNPRSF)
DMS-derived PSSM value (averaged), position N3 [9]: 0.2635

TLNPNAKEFNPRSF(averaged) N5W (TLNPWAKEFNPRSF)
DMS-derived PSSM value (averaged), position N5 [9]: 0.0006294

TLNPNAKEFNPRSF(averaged) L2D (TDNPNAKEFNPRSF)
DMS-derived PSSM value (averaged), position L2 [14]: 0

KSTLNPNAKEFNPRSF N12P (KSTLNPNAKEFPPRSF)
DMS-derived PSSM value, position N12 [3]: 0

TLNPNAKEFNPRSF(averaged) T1F (FLNPNAKEFNPRSF)
DMS-derived PSSM value (averaged), position T1 [2]: 0.03587

TLNPNAKEFNPRSFSQ N5V (TLNPVAKEFNPRSFSQ)
DMS-derived PSSM value, position N5 [5]: 0.09342

TLNPNAKEFNPRSF(averaged) K7P (TLNPNAPEFNPRSF)
DMS-derived PSSM value (averaged), position K7 [16]: 0.005399

KSTLNPNAKEFNPRSF L4N (KSTNNPNAKEFNPRSF)
DMS-derived PSSM value, position L4 (prey ATXN2, peptide KSTLNPNAKEFNPRSF, L = wild type): 0

TLNPNAKEFNPRSFSQ T1E (ELNPNAKEFNPRSFSQ)
DMS-derived PSSM value, position T1 [17]: 0.003724

TLNPNAKEFNPRSF(averaged) K7G (TLNPNAGEFNPRSF)
DMS-derived PSSM value (averaged), position K7 [16]: 0.008693

KSTLNPNAKEFNPRSF T3K (KSKLNPNAKEFNPRSF)
DMS-derived PSSM value, position T3 (prey ATXN2, peptide KSTLNPNAKEFNPRSF, T = wild type): 0

TLNPNAKEFNPRSFSQ N10V (TLNPNAKEFVPRSFSQ)
DMS-derived PSSM value, position N10 [5]: 0.0007642

KSTLNPNAKEFNPRSF N7V (KSTLNPVAKEFNPRSF)
DMS-derived PSSM value, position N7 [3]: 0.01745

TLNPNAKEFNPRSF(averaged) S13F (TLNPNAKEFNPRFF)
DMS-derived PSSM value (averaged), position S13 [1]: 0.01382

TLNPNAKEFNPRSFSQ N3W (TLWPNAKEFNPRSFSQ)
DMS-derived PSSM value, position N3 [5]: 0

TLNPNAKEFNPRSF(averaged) F9R (TLNPNAKERNPRSF)
DMS-derived PSSM value (averaged), position F9 [18]: 0

TLNPNAKEFNPRSFSQ R12Y (TLNPNAKEFNPYSFSQ)
DMS-derived PSSM value, position R12 (prey ATXN2, peptide TLNPNAKEFNPRSFSQ, R = wild type): 0.05186

TLNPNAKEFNPRSFSQ P11F (TLNPNAKEFNFRSFSQ)
DMS-derived PSSM value, position P11 [4]: 0.1255

TLNPNAKEFNPRSF(averaged) F9P (TLNPNAKEPNPRSF)
DMS-derived PSSM value (averaged), position F9 [18]: 0

TLNPNAKEFNPRSF(averaged) P11T (TLNPNAKEFNTRSF)
DMS-derived PSSM value (averaged), position P11 [13]: 0.141

TLNPNAKEFNPRSFSQ T1L (LLNPNAKEFNPRSFSQ)
DMS-derived PSSM value, position T1 [17]: 0.1166

TLNPNAKEFNPRSFSQ T1F (FLNPNAKEFNPRSFSQ)
DMS-derived PSSM value, position T1 [17]: 0.0001584

KSTLNPNAKEFNPRSF N12K (KSTLNPNAKEFKPRSF)
DMS-derived PSSM value, position N12 [3]: 0.009595

TLNPNAKEFNPRSF(averaged) R12G (TLNPNAKEFNPGSF)
DMS-derived PSSM value (averaged), position R12 [11]: 0.06327

— publication PMC12102759 (Protein Science : A Publication of the Protein Society, 2025)
